Results on one molecule are retold here after article PMC11079024, “Identification of a family of species-selective complex I inhibitors as potential anthelmintics” (Nature Communications, 2024).

For the experiment, the target named is C. elegans (N2) complex I (NADH:ubiquinone oxidoreductase) (Caenorhabditis elegans, UniProt P24887+Q93873+Q94360). In words: biochemical. In kind it is biochemical. An outline of the steps: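 Mitochondria from liquid-cultured adults were freeze-thawed thrice before the 15-min DCIP-coupled NADH oxidation read.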
Setting [1] is: wild-type C. elegans, mean of replicates, read-out: in vitro complex I activity relative to solvent control, Mean.
Setting [2] is: wild-type C. elegans, single replicate, read-out: in vitro complex I activity relative to solvent control, individual replicate.

Where two headings read alike, the source gives them in different places.

Chain of C. elegans (N2) complex I (NADH:ubiquinone oxidoreductase) (Q94360 17-199): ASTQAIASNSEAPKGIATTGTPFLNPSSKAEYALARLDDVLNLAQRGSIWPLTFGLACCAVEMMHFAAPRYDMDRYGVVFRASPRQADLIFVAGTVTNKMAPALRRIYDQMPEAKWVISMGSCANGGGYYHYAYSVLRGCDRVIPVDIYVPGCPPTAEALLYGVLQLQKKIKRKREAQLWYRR
Chain of C. elegans (N2) complex I (NADH:ubiquinone oxidoreductase) (P24887 whole entry): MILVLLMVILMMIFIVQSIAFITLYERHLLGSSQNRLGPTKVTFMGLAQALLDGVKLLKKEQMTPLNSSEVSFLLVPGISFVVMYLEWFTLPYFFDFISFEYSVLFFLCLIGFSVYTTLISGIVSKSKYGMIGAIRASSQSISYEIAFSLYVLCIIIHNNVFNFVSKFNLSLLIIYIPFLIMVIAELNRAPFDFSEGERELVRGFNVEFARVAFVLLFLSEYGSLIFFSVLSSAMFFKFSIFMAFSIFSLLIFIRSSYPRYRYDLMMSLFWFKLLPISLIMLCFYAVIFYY
Chain of C. elegans (N2) complex I (NADH:ubiquinone oxidoreductase) (Q93873 31-482): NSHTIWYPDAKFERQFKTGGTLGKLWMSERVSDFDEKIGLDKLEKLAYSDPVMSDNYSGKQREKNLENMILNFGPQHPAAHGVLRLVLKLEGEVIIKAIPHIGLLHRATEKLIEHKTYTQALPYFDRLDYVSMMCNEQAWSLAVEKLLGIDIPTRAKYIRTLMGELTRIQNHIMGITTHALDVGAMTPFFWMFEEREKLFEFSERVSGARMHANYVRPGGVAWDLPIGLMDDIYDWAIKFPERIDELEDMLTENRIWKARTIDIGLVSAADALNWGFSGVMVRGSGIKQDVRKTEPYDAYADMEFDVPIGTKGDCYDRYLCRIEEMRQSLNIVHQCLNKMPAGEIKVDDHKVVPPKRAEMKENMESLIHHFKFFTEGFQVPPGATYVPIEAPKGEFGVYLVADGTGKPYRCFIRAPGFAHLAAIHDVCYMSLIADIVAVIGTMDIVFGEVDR

`CC(C)(C)c1ccc(CCOc2ncnc3ccccc23)cc1` [Fenazaquin, reference compound]: the remaining activity at 0.0001 µM (dose 0.0001 µM, wild-type C. elegans, mean of replicates, read-out: in vitro complex I activity relative to solvent control, Mean) is 94.3%. Moreover, the remaining activity at 0.0005 µM (dose 0.0005 µM, wild-type C. elegans, mean of replicates, read-out: in vitro complex I activity relative to solvent control, Mean) was 89.7%. In addition, under setting [1], the remaining activity at 0.001 µM is 82.5%, the remaining activity at 0.0025 µM was found to be 63.3%, the remaining activity at 0.005 µM was 42.1% and the remaining activity at 0.013 µM was found to be 24%. Moreover, under setting [2], the remaining activity at 0.001 µM stood at 80.4%, the remaining activity at 0.0025 µM is 63.7%, the remaining activity at 0.005 µM turned out to be 42.3% and the remaining activity at 0.013 µM turned out to be 25.6%. Also, the remaining activity at 0.025 µM (dose 0.025 µM, wild-type C. elegans, mean of replicates, read-out: in vitro complex I activity relative to solvent control, Mean) came to 12.5%. In addition, the remaining activity at 0.063 µM (dose 0.063 µM, wild-type C. elegans, mean of replicates, read-out: in vitro complex I activity relative to solvent control, Mean) was 5.41%. Also, the remaining activity at 0.125 µM (dose 0.125 µM, wild-type C. elegans, mean of replicates, read-out: in vitro complex I activity relative to solvent control, Mean) was 2.53%. Moreover, for the setting “dose 0.313 µM, wild-type C. elegans, mean of replicates, read-out: in vitro complex I activity relative to solvent control, Mean”, the remaining activity at 0.313 µM is 1.71%. Moreover, the remaining activity at 0.625 µM (dose 0.625 µM, wild-type C. elegans, mean of replicates, read-out: in vitro complex I activity relative to solvent control, Mean) stood at 2.18%. For the same molecule, the remaining activity at 1.5 µM (dose 1.5 µM, wild-type C. elegans, mean of replicates, read-out: in vitro complex I activity relative to solvent control, Mean) was found to be 1.91%. The remaining activity at 3 µM (dose 3 µM, wild-type C. elegans, mean of replicates, read-out: in vitro complex I activity relative to solvent control, Mean) was determined as 1.48%. Besides, under “dose 15 µM, wild-type C. elegans, mean of replicates, read-out: in vitro complex I activity relative to solvent control, Mean”, the remaining activity at 15 µM was 1.53%. Moreover, the remaining activity at 37.5 µM (dose 37.5 µM, wild-type C. elegans, mean of replicates, read-out: in vitro complex I activity relative to solvent control, Mean) came to 1.86%. Also, the remaining activity at 75 µM (dose 75 µM, wild-type C. elegans, mean of replicates, read-out: in vitro complex I activity relative to solvent control, Mean) worked out at 3.14%. Further, the IC50 (wild-type (N2) mitochondria, read-out: C. elegans Complex I IC50) turned out to be 4.2 nM.

In general, IC50 refers to the midpoint of a concentration-inhibition curve.
